According to article PMC7681013, “Structure and kinetics of indole-3-glycerol phosphate synthase from Pseudomonas aeruginosa: Decarboxylation is not essential for indole formation” (The Journal of Biological Chemistry, 2020):

Molecular target: T1, PaIGPS (Pseudomonas aeruginosa, UniProt P20577)
T1 construct: gene trpC
T1 sequence (P20577 1-278): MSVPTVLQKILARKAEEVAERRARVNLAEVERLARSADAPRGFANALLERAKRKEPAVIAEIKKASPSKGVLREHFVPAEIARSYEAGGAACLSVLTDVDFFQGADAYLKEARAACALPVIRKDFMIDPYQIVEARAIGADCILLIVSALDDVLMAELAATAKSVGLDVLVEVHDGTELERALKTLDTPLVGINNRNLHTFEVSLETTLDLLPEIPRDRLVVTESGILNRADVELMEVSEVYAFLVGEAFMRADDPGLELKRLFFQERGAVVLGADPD
Assay: X-ray crystal structure, […] Å
Type: binding
Settings: active site, nonreactive substrate analog; seven of eight chains; pH 3.4 crystals

O=C(O)c1ccccc1NC[C@@H](O)[C@H](O)[C@H](O)COP(=O)(O)O [rCdRP]
X-ray crystal structure, 2.1 Å: The substrate analog, rCdRP, is bound in the active site of the seven more ordered chains.
